How the values were obtained:
[1] = biological target: 5-hydroxytryptamine receptor 6 (Homo sapiens, UniProt P50406); assay type: cell membranes, HeLa, Membrane; note: in other assays of this panel Not Active means under 50% inhibition at 10 µM
[2] = biological target: T1, 5-hydroxytryptamine receptor 1A (Rattus norvegicus, UniProt P19327); assay type: cell membranes, CHO-K1, Membrane; note: in other assays of this panel Not Active means under 50% inhibition at 10 µM
T1 sequence (P19327 whole entry): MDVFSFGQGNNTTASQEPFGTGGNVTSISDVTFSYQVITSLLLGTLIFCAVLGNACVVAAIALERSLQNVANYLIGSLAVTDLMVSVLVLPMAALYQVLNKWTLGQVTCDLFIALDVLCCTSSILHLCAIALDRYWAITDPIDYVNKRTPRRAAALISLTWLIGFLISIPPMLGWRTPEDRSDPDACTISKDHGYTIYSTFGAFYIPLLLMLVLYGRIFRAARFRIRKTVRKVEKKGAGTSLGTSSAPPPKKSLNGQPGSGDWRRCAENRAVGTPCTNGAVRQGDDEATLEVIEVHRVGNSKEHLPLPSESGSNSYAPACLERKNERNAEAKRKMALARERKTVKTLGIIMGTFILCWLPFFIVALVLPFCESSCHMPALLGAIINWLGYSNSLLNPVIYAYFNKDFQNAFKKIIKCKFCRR

[3] = biological target: Voltage-gated inwardly rectifying potassium channel KCNH2 (Homo sapiens, UniProt Q12809); conditions: hek293; note: in other assays of this panel Not Active means under 50% inhibition at 10 µM
Sequence of Voltage-gated inwardly rectifying potassium channel KCNH2 (Q12809 whole entry): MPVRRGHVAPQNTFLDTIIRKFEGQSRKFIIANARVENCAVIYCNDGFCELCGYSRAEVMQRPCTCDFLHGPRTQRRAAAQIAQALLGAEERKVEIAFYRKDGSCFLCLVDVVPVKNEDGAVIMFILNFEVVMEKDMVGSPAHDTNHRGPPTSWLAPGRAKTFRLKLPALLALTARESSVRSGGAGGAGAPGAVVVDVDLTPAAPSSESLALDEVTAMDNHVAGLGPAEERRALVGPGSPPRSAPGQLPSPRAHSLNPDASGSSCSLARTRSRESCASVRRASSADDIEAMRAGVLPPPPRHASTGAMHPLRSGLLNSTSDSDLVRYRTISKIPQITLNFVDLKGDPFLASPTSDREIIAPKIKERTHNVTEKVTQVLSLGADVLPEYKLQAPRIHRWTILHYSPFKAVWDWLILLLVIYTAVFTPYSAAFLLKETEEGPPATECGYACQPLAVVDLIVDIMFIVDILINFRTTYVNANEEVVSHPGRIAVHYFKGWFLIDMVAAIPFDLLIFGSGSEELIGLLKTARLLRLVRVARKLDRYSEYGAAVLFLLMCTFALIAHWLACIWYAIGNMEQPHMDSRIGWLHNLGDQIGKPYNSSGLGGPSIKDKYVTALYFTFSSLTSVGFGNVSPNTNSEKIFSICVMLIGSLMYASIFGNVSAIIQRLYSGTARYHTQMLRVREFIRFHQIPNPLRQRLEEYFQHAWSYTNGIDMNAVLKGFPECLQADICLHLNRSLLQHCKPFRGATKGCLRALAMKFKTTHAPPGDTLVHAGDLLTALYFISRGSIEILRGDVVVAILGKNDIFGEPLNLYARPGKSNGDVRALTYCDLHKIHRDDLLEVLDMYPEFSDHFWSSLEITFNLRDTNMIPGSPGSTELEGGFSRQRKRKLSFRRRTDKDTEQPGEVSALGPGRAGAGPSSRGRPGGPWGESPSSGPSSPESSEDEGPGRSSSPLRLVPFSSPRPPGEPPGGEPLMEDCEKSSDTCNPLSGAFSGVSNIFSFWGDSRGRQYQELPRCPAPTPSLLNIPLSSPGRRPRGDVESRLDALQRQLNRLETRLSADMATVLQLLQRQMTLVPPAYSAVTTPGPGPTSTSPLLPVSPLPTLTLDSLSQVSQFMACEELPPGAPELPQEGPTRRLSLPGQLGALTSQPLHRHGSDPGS

Vasopressin V1a receptor = Vasopressin V1a receptor (Homo sapiens, UniProt P37288); assay type: cell membranes, Membrane; conditions: hek293; note: in other assays of this panel Not Active means under 50% inhibition at 10 µM
Sequence of Vasopressin V1a receptor (P37288 whole entry): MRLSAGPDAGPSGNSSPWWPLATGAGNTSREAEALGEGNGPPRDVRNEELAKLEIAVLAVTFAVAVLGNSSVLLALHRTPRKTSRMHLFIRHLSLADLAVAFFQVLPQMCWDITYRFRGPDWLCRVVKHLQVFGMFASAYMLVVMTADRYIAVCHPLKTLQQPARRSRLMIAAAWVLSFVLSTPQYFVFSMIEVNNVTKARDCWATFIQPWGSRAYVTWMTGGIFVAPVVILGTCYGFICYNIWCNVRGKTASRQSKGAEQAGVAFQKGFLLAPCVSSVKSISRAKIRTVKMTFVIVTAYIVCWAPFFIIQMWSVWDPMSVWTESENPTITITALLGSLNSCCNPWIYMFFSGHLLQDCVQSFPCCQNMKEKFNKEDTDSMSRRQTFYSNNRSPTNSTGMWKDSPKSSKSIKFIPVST

[4] = biological target: Sodium-dependent noradrenaline transporter (Homo sapiens, UniProt P23975); experiment: DRUGMATRIX: Norepinephrine Transporter radioligand binding (ligand: [125I] RTI-55); assay type: cell membranes, MDCK, Membrane; conditions: mdck, Not Active = under 50% inhibition at 10 µM
Sequence of Sodium-dependent noradrenaline transporter (P23975 whole entry): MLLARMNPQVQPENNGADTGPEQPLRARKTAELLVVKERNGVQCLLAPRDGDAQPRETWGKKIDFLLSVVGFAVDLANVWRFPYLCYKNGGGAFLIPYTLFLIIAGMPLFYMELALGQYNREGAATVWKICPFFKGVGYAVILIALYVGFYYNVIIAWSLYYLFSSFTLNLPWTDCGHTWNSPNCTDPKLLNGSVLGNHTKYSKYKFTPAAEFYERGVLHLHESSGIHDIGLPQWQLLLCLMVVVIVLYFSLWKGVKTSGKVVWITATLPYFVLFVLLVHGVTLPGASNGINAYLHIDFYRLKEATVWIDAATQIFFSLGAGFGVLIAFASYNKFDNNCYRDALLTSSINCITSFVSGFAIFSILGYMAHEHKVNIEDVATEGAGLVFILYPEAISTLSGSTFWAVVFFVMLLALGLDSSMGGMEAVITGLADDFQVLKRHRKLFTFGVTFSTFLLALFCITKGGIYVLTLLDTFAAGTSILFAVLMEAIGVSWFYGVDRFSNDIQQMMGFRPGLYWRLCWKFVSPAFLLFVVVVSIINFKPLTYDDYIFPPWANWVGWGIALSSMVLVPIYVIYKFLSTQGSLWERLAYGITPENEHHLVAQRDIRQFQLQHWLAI

Sequence of 5-hydroxytryptamine receptor 6 (P50406 whole entry): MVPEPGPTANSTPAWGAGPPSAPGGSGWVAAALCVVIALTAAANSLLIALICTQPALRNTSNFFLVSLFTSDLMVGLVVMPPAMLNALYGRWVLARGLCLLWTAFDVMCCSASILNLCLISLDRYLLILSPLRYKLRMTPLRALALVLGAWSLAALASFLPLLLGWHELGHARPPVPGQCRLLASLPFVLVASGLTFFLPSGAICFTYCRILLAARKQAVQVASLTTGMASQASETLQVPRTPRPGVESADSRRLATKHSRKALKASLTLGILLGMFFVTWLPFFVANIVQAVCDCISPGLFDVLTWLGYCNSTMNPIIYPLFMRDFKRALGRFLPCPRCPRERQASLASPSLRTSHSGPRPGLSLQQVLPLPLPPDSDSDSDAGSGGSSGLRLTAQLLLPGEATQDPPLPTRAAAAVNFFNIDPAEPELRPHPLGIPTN

Row | Molecule | IC50 ([1]; hela) | IC50 ([2]; cho-k1) | IC50 [3] | Ki [3] | IC50 (Vasopressin V1a receptor) | IC50 [4] | IC50 ([1]; read-out: IC50) | Ki ([1]; read-out: Ki) | IC50 ([2]; read-out: IC50) | Ki ([2]; read-out: Ki) | Ki ([1]; hela) | Ki ([2]; cho-k1) | Ki (Vasopressin V1a receptor) | Ki [4] | IC50 ([1]; hela, read-out: IC50) | Ki ([1]; hela, read-out: Ki) | IC50 ([4]; read-out: IC50) | Ki ([4]; read-out: Ki)
1 | CN(CCOc1ccc(CC2SC(=O)NC2=O)cc1)c1ccccn1 (centres undefined) [ROSIGLITAZONE] | Not Active | Not Active | Not Active | Not Active | Not Active | Not Active |  |  |  |  |  |  |  |  |  |  |  | 
2 | C=C(C)[C@H]1Cc2c(ccc3c2O[C@@H]2COc4cc(OC)c(OC)cc4[C@@H]2C3=O)O1 [ROTENONE] |  | Not Active | Not Active | Not Active | Not Active | Not Active | 0.87 µM | 0.404 µM |  |  |  |  |  |  |  |  |  | 
3 | C#CCN(C)[C@H](C)Cc1ccccc1 [SELEGILINE] | Not Active | Not Active | Not Active | Not Active | Not Active | Not Active |  |  |  |  |  |  |  |  |  |  |  | 
4 | CO[C@H]1C[C@@H]2CC[C@@H](C)[C@@](O)(O2)C(=O)C(=O)N2CCCC[C@H]2C(=O)O[C@H]([C@H](C)C[C@@H]2CC[C@@H](O)[C@H](OC)C2)CC(=O)[C@H](C)/C=C(\C)[C@@H](O)[C@@H](OC)C(=O)[C@H](C)C[C@H](C)/C=C/C=C/C=C/1C [SIROLIMUS] | Not Active | Not Active | Not Active | Not Active | Not Active | Not Active |  |  |  |  |  |  |  |  |  |  |  | 
5 | CN[C@@H]1[C@H](O)[C@H](NC)[C@H]2O[C@@]3(O)C(=O)C[C@@H](C)O[C@H]3O[C@@H]2[C@H]1O [SPECTINOMYCIN] | Not Active | Not Active | Not Active | Not Active | Not Active | Not Active |  |  |  |  |  |  |  |  |  |  |  | 
6 | Nc1ccc(S(=O)(=O)Nc2ncccn2)cc1 [SULFADIAZINE] | Not Active | Not Active | Not Active | Not Active | Not Active | Not Active |  |  |  |  |  |  |  |  |  |  |  | 
7 | COc1ncnc(NS(=O)(=O)c2ccc(N)cc2)c1OC [SULFADOXINE] | Not Active | Not Active | Not Active | Not Active | Not Active | Not Active |  |  |  |  |  |  |  |  |  |  |  | 
8 | Nc1ccc(S(=O)(=O)Nc2nccs2)cc1 [SULFATHIAZOLE] | Not Active | Not Active | Not Active | Not Active | Not Active | Not Active |  |  |  |  |  |  |  |  |  |  |  | 
9 | CC(C)(C)NC[C@H](O)COc1nsnc1N1CCOCC1 [TIMOLOL] | Not Active |  | Not Active | Not Active | Not Active | Not Active |  |  | 2.71 µM | 1.55 µM |  |  |  |  |  |  |  | 
10 | CCS(=O)(=O)CCn1c([N+](=O)[O-])cnc1C [TINIDAZOLE] | Not Active | Not Active | Not Active | Not Active | Not Active | Not Active |  |  |  |  |  |  |  |  |  |  |  | 
11 | C[C@@H]1C[C@H]2[C@@H]3CCC4=CC(=O)C=C[C@]4(C)C3=CC[C@]2(C)[C@H]1C(=O)CN1CCN(c2cc(N3CCCC3)nc(N3CCCC3)n2)CC1 [TIRILAZAD] | Not Active | Not Active | Not Active | Not Active | Not Active | Not Active |  |  |  |  |  |  |  |  |  |  |  | 
12 | NC[C@H]1O[C@H](O[C@H]2[C@H](O)[C@@H](O[C@H]3O[C@H](CO)[C@@H](O)[C@H](N)[C@H]3O)[C@H](N)C[C@@H]2N)[C@H](N)C[C@@H]1O [TOBRAMYCIN] | Not Active | Not Active | Not Active | Not Active | Not Active | Not Active |  |  |  |  |  |  |  |  |  |  |  | 
13 | O=C(O)C(Cl)(Cl)Cl [TRICHLOROACETIC ACID] | Not Active | Not Active | Not Active | Not Active | Not Active | Not Active |  |  |  |  |  |  |  |  |  |  |  | 
14 | COc1ccc(CN2CCNCC2)c(OC)c1OC [TRIMETAZIDINE] | Not Active | Not Active | Not Active | Not Active | Not Active | Not Active |  |  |  |  |  |  |  |  |  |  |  | 
15 | CC(=O)O[C@H]1C[C@@H]2CC[C@@H]3[C@H](CC[C@@]4(C)[C@H]3C[C@H]([N+]3(C)CCCCC3)[C@@H]4OC(C)=O)[C@@]2(C)C[C@@H]1N1CCCCC1.[Br-] [VECURONIUM BROMIDE] | Not Active | Not Active | Not Active | Not Active | Not Active | Not Active |  |  |  |  |  |  |  |  |  |  |  | 
16 | COc1cc(C(=O)NS(=O)(=O)c2ccccc2C)ccc1Cc1cn(C)c2ccc(NC(=O)OC3CCCC3)cc12 [ZAFIRLUKAST] | Not Active | Not Active | Not Active | Not Active | Not Active | Not Active |  |  |  |  |  |  |  |  |  |  |  | 
17 | Cc1cn([C@H]2C[C@H](N=[N+]=[N-])[C@@H](CO)O2)c(=O)[nH]c1=O [ZIDOVUDINE] | Not Active | Not Active | Not Active | Not Active | Not Active | Not Active |  |  |  |  |  |  |  |  |  |  |  | 
18 | STANNOUS FLUORIDE | Not Active | Not Active | Not Active | Not Active | Not Active | Not Active |  |  |  |  | Not Active | Not Active | Not Active | Not Active |  |  |  | 
19 | THIMEROSAL |  | Not Active | Not Active | Not Active | Not Active |  |  |  |  |  |  | Not Active | Not Active |  | 5.94 µM | 2.76 µM | 0.931 µM | 0.923 µM

From ChEMBL document CHEMBL1909046, “DrugMatrix in vitro pharmacology data”
